Experiment: xn = mol fraction of the nth substance listed
Details: 101 kPa

C[n+]1ccn(CCCC#N)c1.O=S(=O)([O-])C(F)(F)F + CC#N
Details | electrical conductivity [S/m] | viscosity [mPa·s]
288.15 K, x1 = 0.2002 | 1.88 | 6.79
288.15 K, x1 = 0.4006 | 0.55 | 70.7
288.15 K, x1 = 0.6005 | 0.175 | 160
288.15 K, x1 = 0.698 | 0.07 | 340
288.15 K, x1 = 0.7996 | 0.053 | 579
288.15 K, x1 = 0.9007 | 0.031 | 874
288.15 K, x1 = 1 | 0.023 | 1182
293.15 K, x1 = 0.1002 | 2.87 | 1.51
293.15 K, x1 = 0.2002 | 2.08 | 5.95
293.15 K, x1 = 0.2994 | 1.19 | 14.1
293.15 K, x1 = 0.4006 | 0.651 | 55.5
293.15 K, x1 = 0.5 | 0.246 | 85.7
293.15 K, x1 = 0.698 | 0.093 | 255
293.15 K, x1 = 0.7996 | 0.079 | 417
293.15 K, x1 = 0.9007 | 0.044 | 625
293.15 K, x1 = 1 | 0.033 | 811
298.15 K, x1 = 0.1002 | 3.04 | 1.4
298.15 K, x1 = 0.2002 | 2.28 | 5.23
298.15 K, x1 = 0.2994 | 1.35 | 12.15
298.15 K, x1 = 0.4006 | 0.766 | 44.44
298.15 K, x1 = 0.5 | 0.315 | 68.6
298.15 K, x1 = 0.6005 | 0.278 | 92
298.15 K, x1 = 0.698 | 0.124 | 195.4
298.15 K, x1 = 0.9007 | 0.061 | 450
298.15 K, x1 = 1 | 0.046 | 581
303.15 K, x1 = 0.1002 | 3.22 | 1.3
303.15 K, x1 = 0.2002 | 2.49 | 4.65
303.15 K, x1 = 0.2994 | 1.51 | 10.55
303.15 K, x1 = 0.4006 | 0.896 | 36.24
303.15 K, x1 = 0.5 | 0.394 | 54.8
303.15 K, x1 = 0.6005 | 0.345 | 72.2
303.15 K, x1 = 0.698 | 0.163 | 149
303.15 K, x1 = 0.7996 | 0.151 | 230
308.15 K, x1 = 0.1002 | 3.41 | 1.21
308.15 K, x1 = 0.2002 | 2.69 | 4.18
308.15 K, x1 = 0.4006 | 1.03 | 29.81
308.15 K, x1 = 0.5 | 0.485 | 44.07
308.15 K, x1 = 0.6005 | 0.419 | 57.2
308.15 K, x1 = 0.698 | 0.213 | 116.3
308.15 K, x1 = 0.7996 | 0.193 | 174
308.15 K, x1 = 0.9007 | 0.106 | 245
313.15 K, x1 = 0.1002 | 3.57 | 1.13
313.15 K, x1 = 0.2994 | 1.88 | 8.05
313.15 K, x1 = 0.4006 | 1.17 | 24.79
313.15 K, x1 = 0.6005 | 0.5 | 46.5
313.15 K, x1 = 0.698 | 0.274 | 91.3
313.15 K, x1 = 0.9007 | 0.135 | 185
313.15 K, x1 = 1 | 0.104 | 231
318.15 K, x1 = 0.2002 | 3.08 | 3.41
318.15 K, x1 = 0.2994 | 2.08 | 7.12
318.15 K, x1 = 0.4006 | 1.32 | 21.09
318.15 K, x1 = 0.6005 | 0.593 | 37.8
318.15 K, x1 = 0.7996 | 0.288 | 104.7
318.15 K, x1 = 1 | 0.131 | 177.1
323.15 K, x1 = 0.2002 | 3.28 | 3.13
323.15 K, x1 = 0.2994 | 2.29 | 6.32
323.15 K, x1 = 0.4006 | 1.48 | 18.37
323.15 K, x1 = 0.5 | 0.781 | 25.17
323.15 K, x1 = 0.698 | 0.44 | 61.3
323.15 K, x1 = 0.7996 | 0.341 | 83.4
323.15 K, x1 = 0.9007 | 0.205 | 104.8
323.15 K, x1 = 1 | 0.161 | 141.4

Source: a compilation of properties of binary mixtures (doi:10.1016/j.molliq.2018.07.077)
